Source: patent EP0468504B1, “A novel antibiotic, balhimycin, a process for its production and its use as pharmaceutical” (HOECHST AKTIENGESELLSCHAFT, priority 1990, dated 1992)
Structures can show the parent of a compound that is named as a salt.

Legend:
Test in all cases: MIC, antibacterial activity
Assay type in all cases: cell-based
S. aureus 209 P = test system: S. aureus 209 P
S. epi. 825 = test system: S. epi. 825
S. faec. D Endococcen = test system: S. faec. D Endococcen
Ps. aeruginosa = test system: Ps. aeruginosa
[1] = test system: Streptococcus faecalis ATCC 29212
S. faecium D-65 = test system: S. faecium D-65
P. vulgaris = test system: P. vulgaris
S. aureus E 690 (MethR) = test system: S. aureus E 690 (MethR)
[2] = test system: S. haemo. 809 (Teicoplanin R)
S. aureus 3066 (MethR) = test system: S. aureus 3066 (MethR)
Staph. epidermidis 178 = test system: Staph. epidermidis 178
Staph. haemolyticus 712 = test system: Staph. haemolyticus 712
E. coli 9632 = test system: E. coli 9632
S. faec. D 21777 = test system: S. faec. D 21777
[3] = test system: S. epi. 823 (Teicoplanin R)
S. faecium D-59 = test system: S. faecium D-59
S. aureus (MethR) = test system: S. aureus (MethR)

CNC(CC(C)C)C(=O)NC1C(=O)NC(CC(N)=O)C(=O)NC2C(=O)NC3C(=O)NC(C(=O)NC(C(=O)O)c4cc(O)cc(O)c4-c4cc3ccc4O)C(OC3C[C@](C)(N)C(=O)C(C)O3)c3ccc(c(Cl)c3)Oc3cc2cc(c3OC2O[C@H](CO)C(O)[C@H](O)C2O)Oc2ccc(cc2Cl)C1O (some centres unmarked) [Balhimycin trifluoroacetate, Balhimycin]
MIC (S. aureus 209 P): 0.39 µg/mL
MIC (S. epi. 825): 3.12 µg/mL
MIC (S. faec. D Endococcen): 0.78 µg/mL
MIC (Ps. aeruginosa): >100 µg/mL
MIC [1]: 1.56 µg/mL
MIC (S. faecium D-65): 0.78 µg/mL
MIC (P. vulgaris): >100 µg/mL
MIC (S. aureus E 690 (MethR)): 0.39 µg/mL
MIC [2]: 6.25 µg/mL
MIC (S. aureus 3066 (MethR)): 0.78 µg/mL
MIC (Staph. epidermidis 178): 1.56 µg/mL
MIC (Staph. haemolyticus 712): 1.56 µg/mL
MIC (E. coli 9632): >100 µg/mL
MIC (S. faec. D 21777): 0.78 µg/mL
MIC [3]: 12.5 µg/mL
MIC (S. faecium D-59): 1.56 µg/mL
MIC (S. aureus (MethR)): 0.39 µg/mL
